Reference: patent US20240398771A1, “TREATMENT OF SCLERODERMA AND RAYNAUD'S SYNDROME” (Aisa Pharma, Inc., priority 2023, published 2024)

System: participants with SSc-RP
Test: Average duration of weekly RP attacks, all attacks (minutes)
Format: in vivo, human
Conditions: for Average Duration of weekly RP attacks (All Attacks), Max / Average Duration of weekly RP attacks (All Attacks), Min / Average duration of weekly RP attacks (All Attacks), Change from Baseline, Max / Average duration of weekly RP attacks (All Attacks), Change from Baseline, Min / Average duration of weekly RP attacks (All Attacks), Change from Baseline, Q1 / Average duration of weekly RP attacks (All Attacks), Change from Baseline, Q3 / Average duration of weekly RP attacks (All Attacks), Percent Change from Baseline, Max / Average Duration of weekly RP attacks (All Attacks) / Average Duration of weekly RP attacks (All Attacks), Q1 / Average duration of weekly RP attacks (All Attacks), Change from Baseline / Average duration of weekly RP attacks (All Attacks), Percent Change from Baseline, Min / Average duration of weekly RP attacks (All Attacks), Percent Change from Baseline, Q1 / Average duration of weekly RP attacks (All Attacks), Percent Change from Baseline, Q3: last 7 days of dosing period
Text: The relevant metrics measured by this tool daily are: • Study medication • SSc-RP symptoms (Reporting an attack including duration of attack) • Severity of the attack considering all symptoms of the attack e.g. tingling, numbness, pain, color changes (VAS 0-10 cm scale) • Participant's location at the time of the attack (inside home/outside home) • Selecting symptoms experienced during the attack (tingling, numbness, pain, color changes, other) • Pain rating during the attack (11-point Likert scale) • The RCS based on how much difficulty participants had with Raynaud's today, how many attacks the participant had, and how long they lasted. Participants will also be asked to consider how much pain, numbness, or other symptoms the Raynaud's caused in fingers (including painful sores), and how much the Raynaud's alone affected the use of hands today (VAS 0-10 cm scale).
The absolute change in average duration of weekly RP attacks from baseline to the end of each dosing period was and will be a secondary outcome variable. The sponsor-developed participant-informed diary was and will be used to record data. Average duration of weekly RP attacks is defined as the total duration of RP attacks divided by total number of RP attacks within the last 7 days of each dosing period. Total duration of RP attacks during the last 7 days of screening period divided by the total number of RP attacks will be used as baseline for the analysis of all periods. The variable will be calculated similar to frequency data as before.

[1] = Excluding Outliers, ITT Population - Part A (Table B-6), listed as Cilnidipine 10 mg
[2] = Excluding Outliers, ITT Population - Part A (Table B-6), listed as Cilnidipine 20 mg
[3] = Excluding Outliers, ITT Population - Part A (Table B-6), listed as Pooled Cilnidipine
[4] = Excluding Outliers, ITT Population - Part A (Table B-6), last 7 days of screening period, listed as Cilnidipine 10 mg
[5] = Excluding Outliers, ITT Population - Part A (Table B-6), last 7 days of screening period, listed as Cilnidipine 20 mg
[6] = Excluding Outliers, ITT Population - Part A (Table B-6), last 7 days of screening period, listed as Pooled Cilnidipine
[7] = ITT Population - Part A (Table B-5), listed as Cilnidipine 10 mg

For `COCCOC(=O)C1=C(C)NC(C)=C(C(=O)OC/C=C/c2ccccc2)C1c1cccc([N+](=O)[O-])c1` (centres unmarked) [Cilnidipine, 1,4-dihydro-2,6-dimethyl,4-(3-nitrophenyl)-3,5-pyridinedicarboxylic acid 2-methoxyethyl (2 E)-3-phenyl-2-propenyl ester], the “Average Duration of weekly RP attacks (All Attacks), Max” value (“Average Duration … (All Attacks), Max” below) [1] was 31.5, 31.5 minutes, the “Average Duration of weekly RP attacks (All Attacks), Min” value [1] was 31.5, 31.5 minutes and the “Average duration of weekly RP attacks (All Attacks), Change from Baseline, Max” value [1] was −8.5, −8.5 minutes. For the same compound, the “Average duration of weekly RP attacks (All Attacks), Change from Baseline, Min” value [1] was −8.5, −8.5 minutes, the “Average duration of weekly RP attacks (All Attacks), Change from Baseline, Q1” value [1] was −8.48, −8.48 minutes and the “Average duration of weekly RP attacks (All Attacks), Change from Baseline, Q3” value [1] was −8.48, −8.48 minutes. For the same compound, the “Average duration of weekly RP attacks (All Attacks), Percent Change from Baseline, Max” value [1] was −21.2, −21.2%, the “Average Duration of weekly RP attacks (All Attacks)” value [2] was 3.0 min and the “Average Duration … (All Attacks), Max” value [2] was 30.5 min. For the same compound, the “Average Duration of weekly RP attacks (All Attacks), Q1” value [2] was 3.00 min, the “Average duration of weekly RP attacks (All Attacks), Change from Baseline” value [2] was -7.6 min and the “Average duration of weekly RP attacks (All Attacks), Change from Baseline, Max” value [2] was 5.5 min. For the same compound, the “Average duration of weekly RP attacks (All Attacks), Change from Baseline, Q3” value [2] was 5.45 min, the “Average duration of weekly RP attacks (All Attacks), Percent Change from Baseline, Max” value [2] was 21.8% and the “Average duration of weekly RP attacks (All Attacks), Percent Change from Baseline, Min” value [2] was −71.8%. For the same compound, the “Average duration of weekly RP attacks (All Attacks), Percent Change from Baseline, Q1” value [2] was −71.76%, the “Average duration of weekly RP attacks (All Attacks), Percent Change from Baseline, Q3” value [2] was 21.82% and the “Average Duration of weekly RP attacks (All Attacks)” value [3] was 3.0 min. For the same compound, the “Average Duration … (All Attacks), Max” value [3] was 31.5 min, the “Average Duration of weekly RP attacks (All Attacks), Q1” value [3] was 3.00 min and the “Average duration of weekly RP attacks (All Attacks), Change from Baseline” value [3] was -8.5 min. For the same compound, the “Average duration of weekly RP attacks (All Attacks), Change from Baseline, Max” value [3] was 5.5 min, the “Average duration of weekly RP attacks (All Attacks), Change from Baseline, Q1” value [3] was -8.48 min and the “Average duration of weekly RP attacks (All Attacks), Change from Baseline, Q3” value [3] was 5.45 min. For the same compound, the “Average duration of weekly RP attacks (All Attacks), Percent Change from Baseline, Max” value [3] was 21.8%, the “Average duration of weekly RP attacks (All Attacks), Percent Change from Baseline, Min” value [3] was −71.8% and the “Average duration of weekly RP attacks (All Attacks), Percent Change from Baseline, Q1” value [3] was −71.76%. For the same compound, the “Average duration of weekly RP attacks (All Attacks), Percent Change from Baseline, Q3” value [3] was 21.82%, the “Average duration of weekly RP attacks (All Attacks), Baseline, Max” value [4] was 40.0, 40.0 minutes and the “Average duration of weekly RP attacks (All Attacks), Baseline, Min” value [4] was 40.0, 40.0 minutes. For the same compound, the “Average duration of weekly RP attacks (All Attacks), Baseline, Q1” value [4] was 40.00, 40.00 minutes, the “Average duration of weekly RP attacks (All Attacks), Baseline, Q3” value [4] was 40.00, 40.00 minutes and the “Average duration of weekly RP attacks (All Attacks), Baseline” value [5] was 10.6 min. The “Average duration of weekly RP attacks (All Attacks), Baseline, Max” value [5] was 25.0 min, the “Average duration of weekly RP attacks (All Attacks), Baseline, Q1” value [5] was 10.63 min and the “Average duration of weekly RP attacks (All Attacks), Baseline, Q3” value [5] was 25.00 min. The “Average duration of weekly RP attacks (All Attacks), Baseline” value [6] was 10.6 min, the “Average duration of weekly RP attacks (All Attacks), Baseline, Max” value [6] was 40.0 min and the “Average duration of weekly RP attacks (All Attacks), Baseline, Mean” value [6] was 25.21 min. The “Average duration of weekly RP attacks (All Attacks), Baseline, Median” value [6] was 25.00 min, the “Average duration of weekly RP attacks (All Attacks), Baseline, Q1” value [6] was 10.63 min and the “Average duration of weekly RP attacks (All Attacks), Baseline, Q3” value [6] was 40.00 min. For the same compound, the “Average Duration … (All Attacks), Max” value [7] was 31.5, 31.5 minutes, the “Average Duration of weekly RP attacks (All Attacks), Min” value [7] was 31.5, 31.5 minutes and the “Average duration of weekly RP attacks (All Attacks), Change from Baseline, Max” value [7] was −8.5, −8.5 minutes. The “Average duration of weekly RP attacks (All Attacks), Change from Baseline, Min” value [7] was −8.5, −8.5 minutes and the “Average Duration of weekly RP attacks (All Attacks)” value (ITT Population - Part A (Table B-5), listed as Cilnidipine 20 mg) was 3.0 min.
